Values after ≈ are worked out from the molar mass of the structure shown.
Assays:
Format in all cases: functional
[1] = test system: Staphylococcus epidermidis; assay: Antibacterial activity against Staphylococcus epidermidis HK6996/08 after 24 hrs by broth microdilution method; conditions: HK6996/08, 24 h
[2] = test system: Enterococcus sp.; assay: Antibacterial activity against Enterococcus sp. HK14365/08 after 24 hrs by broth microdilution method; conditions: HK14365/08, 24 h
[3] = test system: Staphylococcus aureus; assay: Antibacterial activity against methicillin-resistant Staphylococcus aureus HK5996/08 after 24 hrs by broth microdilution method; conditions: HK5996/08, 24 h
[4] = test system: Staphylococcus aureus; assay: Antibacterial activity against Staphylococcus aureus ATCC 6538 after 24 hrs by broth microdilution method; conditions: ATCC 6538, 24 h

CN[C@H](CC(C)C)C(=O)N[C@H]1C(=O)N[C@@H](CC(N)=O)C(=O)N[C@H]2C(=O)N[C@H]3C(=O)N[C@H](C(=O)N[C@H](C(=O)O)c4cc(O)cc(O)c4-c4cc3ccc4O)[C@H](O)c3ccc(c(Cl)c3)Oc3cc2cc(c3O[C@@H]2O[C@H](CO)[C@@H](O)[C@H](O)[C@H]2O[C@H]2C[C@](C)(N)[C@H](O)[C@H](C)O2)Oc2ccc(cc2Cl)[C@H]1O [VANCOMYCIN]
MIC [1]: 0.35 µM (≈ 0.507 µg/mL) | MIC [2]: 0.7 µM (≈ 1.01 µg/mL) | MIC [3]: 0.35 µM (≈ 0.507 µg/mL) | MIC [4]: 0.35 µM (≈ 0.507 µg/mL)

From ChEMBL document CHEMBL4002566, “S-substituted 3,5-dinitrophenyl 1,3,4-oxadiazole-2-thiols and tetrazole-5-thiols as highly efficient antitubercular agents” (Eur J Med Chem, 2017)
